Blank lines part the entries; values can stand above or below the compound they belong to.
Key:
[1] = Biodistribution studies in NMRI mice; assay type: in vivo; details: i.v.; for Percentage of ID, blood: blood mass assumed 7% of body mass
Procedure: The biodistribution studies were performed in wild-type NMRI mice with body weights ranging from 30 to 40 g. Mice were intravenously injected with 0.1 MBq of ^18F]-(3) or ^18F]-(5) and 5.5 MBq of ^11C]-(4) or ^11C]-(6) under anesthesia (2% isoflurane in O2 at a flow rate of 1 L/min). The animals were killed by decapitation at 2 min or 60 min p.i. (n = 4/time point for ^18F]-(3), ^11C]-(4), and ^11C]-(6); n = 6 for ^18F]-(5)). Blood was collected, and all major organs were dissected and collected in tarred tubes and were weighed. The radioactivity in each organ was counted using an automated gamma counter, corrected for background radioactivity and expressed as follows: percentage of the injected dose (% ID) or as standardized uptake value (SUV) (SUV = (Counts in tissue per gram of tissue) / (Injected counts per total body mass (g)). For the calculation of total radioactivity in the blood, blood mass was assumed to be 7% of the body mass.

[2] = Dynamic micro-PET scan in rats; assay type: in vivo, Wistar rat
Procedure: PET images were acquired on a FOCUS 220 tomograph (Siemens/Concorde Microsystems, Knoxville, TN, USA). During all scan sessions, rats were anesthetized (2.5% isoflurane in O2 at a flow rate of 1 L/min) and scanned in prone position. [^18F]-(5) (37 MBq) was administered via the tail vein, and a 1-h dynamic scan was acquired. The images were acquired in list mode and binned in sinograms using a 21-dynamic frame protocol (4 × 15, 4 × 60, 5 × 180, 8 × 300 s). Reconstruction was performed with the Focus 220 software (using Fourier rebinning, followed by two-dimensional (2D) OSEM algorithm), and data were analyzed using PMOD (version 2.65; PMOD, Zurich, Switzerland). The radioactivity concentration in the heart region was expressed as SUVs as a function of time after injection of the radiotracer.

Percentage of ID, brain ([1]; 2 min p.i.): 0.2 ± 0.0 % ID
Percentage of ID, carcass ([1]; 2 min p.i.): 17.6 ± 1.5 % ID
Percentage of ID, heart ([1]; 2 min p.i.): 0.5 ± 0.1 % ID
Percentage of ID, intestines ([1]; 2 min p.i.): 3.6 ± 1.3 % ID
Percentage of ID, kidneys ([1]; 2 min p.i.): 8.1 ± 1.3 % ID
Percentage of ID, liver ([1]; 2 min p.i.): 8.4 ± 0.7 % ID
Percentage of ID, lungs ([1]; 2 min p.i.): 4.9 ± 2.5 % ID
Percentage of ID, spleen + pancreas ([1]; 2 min p.i.): 0.6 ± 0.1 % ID
Percentage of ID, stomach ([1]; 2 min p.i.): 0.7 ± 0.1 % ID
Percentage of ID, urine ([1]; 2 min p.i.): 0.4 ± 0.1 % ID
SUV, blood ([1]; 2 min p.i.): 12.9 ± 0.8
SUV, brain ([1]; 2 min p.i.): 0.2 ± 0.0
SUV, heart ([1]; 2 min p.i.): 1.2 ± 0.2
SUV, kidneys ([1]; 2 min p.i.): 4.3 ± 0.7
SUV, liver ([1]; 2 min p.i.): 1.5 ± 0.2
SUV, lungs ([1]; 2 min p.i.): 6.0 ± 1.6
SUV, spleen ([1]; 2 min p.i.): 0.9 ± 0.1
Percentage of ID, blood ([1]; 2 min p.i.): 90.5 ± 5.9 % ID
Percentage of ID, brain ([1]; 60 min p.i.): 0.3 ± 0.0 % ID
Percentage of ID, carcass ([1]; 60 min p.i.): 21.2 ± 2.8 % ID
Percentage of ID, heart ([1]; 60 min p.i.): 0.5 ± 0.1 % ID
Percentage of ID, intestines ([1]; 60 min p.i.): 12.4 ± 0.8 % ID
Percentage of ID, kidneys ([1]; 60 min p.i.): 4.1 ± 0.3 % ID
Percentage of ID, liver ([1]; 60 min p.i.): 9.2 ± 1.1 % ID
Percentage of ID, lungs ([1]; 60 min p.i.): 4.2 ± 1.1 % ID
Percentage of ID, spleen + pancreas ([1]; 60 min p.i.): 0.8 ± 0.1 % ID
Percentage of ID, stomach ([1]; 60 min p.i.): 2.6 ± 0.3 % ID
Percentage of ID, urine ([1]; 60 min p.i.): 4.4 ± 2.7 % ID
SUV, blood ([1]; 60 min p.i.): 10.4 ± 1.1
SUV, brain ([1]; 60 min p.i.): 0.2 ± 0.0
SUV, heart ([1]; 60 min p.i.): 1.0 ± 0.3
SUV, kidneys ([1]; 60 min p.i.): 2.5 ± 0.2
SUV, liver ([1]; 60 min p.i.): 1.9 ± 0.3
SUV, lungs ([1]; 60 min p.i.): 4.7 ± 0.7
SUV, spleen ([1]; 60 min p.i.): 1.1 ± 0.2
Percentage of ID, blood ([1]; 60 min p.i.): 72.5 ± 7.6 % ID
SMILES: [11CH3]Oc1ccc(C(=O)NCCc2ccc(S(N)(=O)=O)cc2)cc1 [[^11C]-(4), 4-[^11C]methoxybenzoyl aminoethylbenzenesulfonamide]

Percentage of ID, brain ([1]; 2 min p.i.): 0.7 ± 0.1 % ID
Percentage of ID, carcass ([1]; 2 min p.i.): 28.4 ± 2.0 % ID
Percentage of ID, heart ([1]; 2 min p.i.): 0.7 ± 0.2 % ID
Percentage of ID, intestines ([1]; 2 min p.i.): 5.2 ± 0.9 % ID
Percentage of ID, kidneys ([1]; 2 min p.i.): 3.7 ± 0.1 % ID
Percentage of ID, liver ([1]; 2 min p.i.): 6.9 ± 0.4 % ID
Percentage of ID, lungs ([1]; 2 min p.i.): 6.3 ± 2.7 % ID
Percentage of ID, spleen + pancreas ([1]; 2 min p.i.): 1.2 ± 0.1 % ID
Percentage of ID, stomach ([1]; 2 min p.i.): 1.5 ± 0.3 % ID
Percentage of ID, urine ([1]; 2 min p.i.): 0.3 ± 0.1 % ID
SUV, blood ([1]; 2 min p.i.): 11.9 ± 1.1
SUV, brain ([1]; 2 min p.i.): 0.7 ± 0.1
SUV, heart ([1]; 2 min p.i.): 1.6 ± 0.4
SUV, kidneys ([1]; 2 min p.i.): 2.4 ± 0.3
SUV, liver ([1]; 2 min p.i.): 1.5 ± 0.1
SUV, lungs ([1]; 2 min p.i.): 6.2 ± 2.1
SUV, spleen ([1]; 2 min p.i.): 1.9 ± 0.8
Percentage of ID, blood ([1]; 2 min p.i.): 83.4 ± 7.7 % ID
Percentage of ID, brain ([1]; 60 min p.i.): 1.5 ± 0.1 % ID
Percentage of ID, carcass ([1]; 60 min p.i.): 26.1 ± 1.0 % ID
Percentage of ID, heart ([1]; 60 min p.i.): 0.4 ± 0.1 % ID
Percentage of ID, intestines ([1]; 60 min p.i.): 19.3 ± 1.0 % ID
Percentage of ID, kidneys ([1]; 60 min p.i.): 4.1 ± 0.6 % ID
Percentage of ID, liver ([1]; 60 min p.i.): 6.1 ± 0.5 % ID
Percentage of ID, lungs ([1]; 60 min p.i.): 3.1 ± 1.4 % ID
Percentage of ID, spleen + pancreas ([1]; 60 min p.i.): 2.3 ± 0.6 % ID
Percentage of ID, stomach ([1]; 60 min p.i.): 2.4 ± 0.2 % ID
Percentage of ID, urine ([1]; 60 min p.i.): 4.8 ± 0.3 % ID
SUV, blood ([1]; 60 min p.i.): 7.1 ± 0.7
SUV, brain ([1]; 60 min p.i.): 1.1 ± 0.1
SUV, heart ([1]; 60 min p.i.): 0.9 ± 0.1
SUV, kidneys ([1]; 60 min p.i.): 2.4 ± 0.2
SUV, liver ([1]; 60 min p.i.): 1.4 ± 0.2
SUV, lungs ([1]; 60 min p.i.): 3.5 ± 1.1
SUV, spleen ([1]; 60 min p.i.): 2.4 ± 0.4
Percentage of ID, blood ([1]; 60 min p.i.): 49.7 ± 4.8 % ID
SMILES: [11CH3]Oc1ccc(S(N)(=O)=O)cc1 [[^11C]-(6), 4-[^11C]methoxybenzene sulfonamide]

Average SUV ratio heart-to-kidney ([2]; micro-PET): 2.5
Average SUV ratio heart-to-liver ([2]; micro-PET): 4
Average SUV ratio heart-to-spleen ([2]; micro-PET): 2.3
Bone uptake (in vivo defluorination) ([2]; micro-PET): no bone uptake was observed
Heart region SUV at 60 min relative to the 2-min value ([2]; micro-PET): 75%
SUV, heart ([2]; micro-PET time activity curves, 37 MBq i.v.): 2.5
Percentage of ID, brain ([1]; 2 min p.i.): 0.3 ± 0.0 % ID
Percentage of ID, carcass ([1]; 2 min p.i.): 18.8 ± 1.6 % ID
Percentage of ID, heart ([1]; 2 min p.i.): 0.6 ± 0.1 % ID
Percentage of ID, intestines ([1]; 2 min p.i.): 2.9 ± 0.4 % ID
Percentage of ID, kidneys ([1]; 2 min p.i.): 4.1 ± 0.8 % ID
Percentage of ID, liver ([1]; 2 min p.i.): 6.0 ± 1.1 % ID
Percentage of ID, lungs ([1]; 2 min p.i.): 7.3 ± 3.9 % ID
Percentage of ID, spleen + pancreas ([1]; 2 min p.i.): 1.1 ± 0.1 % ID
Percentage of ID, stomach ([1]; 2 min p.i.): 0.8 ± 0.2 % ID
Percentage of ID, urine ([1]; 2 min p.i.): 0.3 ± 0.1 % ID
SUV, blood ([1]; 2 min p.i.): 17.3 ± 2.5
SUV, brain ([1]; 2 min p.i.): 0.5 ± 0.1
SUV, heart ([1]; 2 min p.i.): 1.6 ± 0.4
SUV, kidneys ([1]; 2 min p.i.): 3.1 ± 0.6
SUV, liver ([1]; 2 min p.i.): 1.4 ± 0.3
SUV, lungs ([1]; 2 min p.i.): 9.3 ± 2.9
SUV, spleen ([1]; 2 min p.i.): 2.1 ± 0.7
Percentage of ID, blood ([1]; 2 min p.i.): 106.3 ± 5.2 % ID
Percentage of ID, brain ([1]; 60 min p.i.): 1.0 ± 0.1 % ID
Percentage of ID, carcass ([1]; 60 min p.i.): 22.4 ± 1.5 % ID
Percentage of ID, heart ([1]; 60 min p.i.): 0.6 ± 0.2 % ID
Percentage of ID, intestines ([1]; 60 min p.i.): 9.6 ± 2.8 % ID
Percentage of ID, kidneys ([1]; 60 min p.i.): 3.7 ± 1.1 % ID
Percentage of ID, liver ([1]; 60 min p.i.): 4.0 ± 0.2 % ID
Percentage of ID, lungs ([1]; 60 min p.i.): 1.8 ± 0.6 % ID
Percentage of ID, spleen + pancreas ([1]; 60 min p.i.): 0.9 ± 0.4 % ID
Percentage of ID, stomach ([1]; 60 min p.i.): 4.2 ± 3.1 % ID
SUV, blood ([1]; 60 min p.i.): 11.1 ± 1.2
SUV, brain ([1]; 60 min p.i.): 1.4 ± 0.2
SUV, heart ([1]; 60 min p.i.): 1.7 ± 0.5
SUV, kidneys ([1]; 60 min p.i.): 2.5 ± 0.4
SUV, liver ([1]; 60 min p.i.): 1.0 ± 0.1
SUV, lungs ([1]; 60 min p.i.): 3.8 ± 0.4
SUV, spleen ([1]; 60 min p.i.): 2.2 ± 0.8
Percentage of ID, blood ([1]; 60 min p.i.): 71.0 ± 14.5 % ID
SMILES: NS(=O)(=O)c1ccc(OCC[18F])cc1 [[^18F]-(5), 4-(2-[^18F]fluoroethoxy)benzenesulfonamide]
